Tests used:
[1] = system: human FXRα promoter 1 (FXRα1/α2); assay: Luciferase reporter assay, FXRα promoter 1, in HepG2 cells; assay type: cell-based; details: with or without LNnT, p<0.05, FIG. 4b
Description: HepG2 cells, obtained from ATCC (#HB-8065), were cultured in Eagle's minimal essential media supplemented with non-essential amino acids, L-glutamine, sodium pyruvate, sodium bicarbonate, 10% fetal bovine serum, and antibiotics.
(§1) The upstream promoter 1 and downstream promoter 2 regions of the human FXRα gene were cloned into the pGL3-basic luciferase reporter construct and transfected into HepG2 cells in a 96-well format or primary hepatocytes in a 24-well format using a luciferase system (Promega). A β-galactosidase reporter construct was used as a transfection control. Promoters 1 and 2 of the human FXRα gene were PCR amplified and cloned into the pGL3-basic luciferase reporter (Promega). Point mutations were introduced using the site-directed mutagenesis kit (Stratagene).
Both human and mouse FXRα contain two major promoters (FIG. 2c). […] To examine the signalling pathways through which LNFPIII regulates FXRα activity, the activities of luciferase reporters driven by upstream (promoter 1) or downstream (promoter 2) regulatory regions were examined in HepG2 cells (human hepatoma cells). Reporters driven by a 2 kb fragment of human FXRα promoter 1 or a 0.13 kb fragment of human FXRα promoter 2 were transfected into HepG2 cells. Twenty-four hours after transfection, cells were treated with or without LNFPIII (20 μg/ml) or SEA (2 μg/ml) for an additional 24 hours.

[2] = system: primary mouse hepatocytes
[3] = system: Male C57BL/6J mice on a high-fat, high carbohydrate diet; assay: High fat diet-induced steatosis and liver function in mice (histology, liver triglycerides, circulating AST/ALT); assay type: in vivo; details: vs vehicle
Description: (§2) Male C57BL/6J mice (8-10 weeks of age) were placed on a high-fat, high carbohydrate diet (F3282, Bio-Serv) for the duration for the experiments. After 6 weeks of the special diet, mice were intraperitoneally injected 2 times per week with 25 μg of dextran (vehicle) or 25 μg of LNFPIII conjugated with dextran (LNFPIII-dex). A second cohort was treated with 0.9% NaCl or SEA dissolved in 0.9% NaCl (25 μg/mouse/twice a week). Metabolic studies started 4 weeks after LNFPIII or SEA treatment and were conducted after 6 hrs of fasting. Animals were sacrificed at the 6th week of treatment for serum and tissue collection. Most experiments were repeated in two cohorts (n=4-7/treatment). Body weight and food intake were monitored weekly.
Circulating levels of ALT and AST, markers of overall liver function, were measured using commercial kits as described in Liu et al. (JBC 2011; 286:1237-47).
The Dana Farber/Harvard Cancer Center Research Pathology Cores provided all histological services and preliminary assessments by a pathologist. Briefly, tissues were collected from animals and fixed in 10% formalin (liver) for 48 hours. Fixed samples were rinsed in PBS and sent to the histology core to be paraffin embedded, sectioned, and stained with hematoxylin and eosin according to standard procedures. A staff pathologist analyzed the samples for signs of inflammation, fatty liver, fibrosis, and other pathologies associated with the liver.
In this example, the ability of LNFPIII or SEA to prevent high fat diet-induced steatosis and preserve liver function was examined. Mice were injected with either vehicle (dextran, 25 μg), LNFPIII conjugated to dextran (25 μg), or SEA twice a week (n=5 for each group) as described in the Methods section.
To determine whether overall liver function was affected by LNFPIII treatment, circulating levels of AST and ALT were also examined.

livers of mice = details: mouse, in vivo
FXRα−/− mice = assay: LNFPIII treatment of FXRα−/− mice (liver mRNA, hepatic triglyceride, serum AST/ALT); assay type: in vivo
Text: Male C57BL/6J mice (8-10 weeks of age) were purchased from The Jackson Laboratory (Bar Harbor, Me.). FXR α−/− mice (both in the C57BL/6J background) were obtained from The Jackson Laboratory. All animal studies were approved by the Harvard Medical Area Standing Committee on Animals.
as §2
Furthermore, to determine whether FXRα mediated the effects of LNFPIII on lipogenesis and fatty acid oxidation, primary hepatocytes were isolated from wild type or FXRα^−/− mice, cultured, and tested for de novo lipogenesis and fatty acid oxidation.

[4] = system: human FXRα promoter 2 (FXRα3/α4); assay: Luciferase reporter assay, FXRα promoter 2, in HepG2 cells; assay type: cell-based
Text: as §1
To examine the signalling pathways through which LNFPIII regulates FXRα activity, the activities of luciferase reporters driven by upstream (promoter 1) or downstream (promoter 2) regulatory regions were examined in HepG2 cells (human hepatoma cells). Reporters driven by a 2 kb fragment of human FXRα promoter 1 or a 0.13 kb fragment of human FXRα promoter 2 were transfected into HepG2 cells. Twenty-four hours after transfection, cells were treated with or without LNFPIII (20 μg/ml) or SEA (2 μg/ml) for an additional 24 hours.
To gain insight into the region of promoter 2 responsible for promoter activation, the minimal LNFPIII responsive region was determined through a series of promoter deletion mutants.

Erk [5] = assay: Immunoblot of phospho-Erk in liver lysates of treated mice; assay type: in vivo; details: FIG. 3f
Description: FIG. 3F (top panel) is an immunoblot for levels of phosphor-Erk (p-Erk) and total Erk (t-Erk) in liver lysates prepared from vehicle or LNFPIII treated mice (n=5, showing representative 3 samples/treatment). Actin levels served as a loading control. FIG. 3F (bottom panel) is a bar graph depicting the densitometric analysis of the immunoblot from FIG. 3F (top panel). Results are presented as mean±SEM. *p<0.05.
(§3) For Western blot analyses, tissue and cell lysates were prepared in lysis buffer (20 mM Tris-HCl, 100 mM NaCl, 1 mM EDTA, NP-40, glycerol, PMSF, and DTT) in the presence of protease and phosphatase inhibitors. The four FXRα (NR1H4) isoforms were based on previous reports, which were originally designated as FXRα1/α2 and FXRβ1/β2 (Huber et al., Gene 2002; 290:35-43; Zhang et al., JBC 2003; 278:104-10). The latter were renamed FXRα3/α4 to avoid confusion with rodent FXRβ (NR1H5) (Lefebvre et al., Physiol Rev 2009; 89:147-91).

[6] = system: primary mouse hepatocytes; details: PD98059 1 hour prior to overnight LNFPIII, FIG. 3i
Erk [7] = assay: Immunoblot of phospho-Erk in primary hepatocytes; assay type: cell-based, mouse; details: PD98059 1 hour prior to overnight LNFPIII, FIG. 3g
Description: FIG. 3G (left panel) is an immunoblot for levels of phospho-Erk (p-Erk) and total Erk (t-Erk) in primary hepatocytes treated with vehicle, LNFPIII, PD90859, or LNFPIII+PD98059. Cells were pretreated with PD98059 for 1 hour prior to overnight LNFPIII treatment. Actin levels served as a loading control. FIG. 3G (right panel) is a bar graph depicting the densitometric analysis of the immunoblot from FIG. 3G (left panel). Results are presented as mean±SEM.
FIG. 3H is an immunoblot for levels of p-Erk and t-Erk in primary hepatocytes treated with vehicle, SEA, or SEA+PD98059. Cells were pretreated with PD98059 for 1 hour prior to overnight SEA treatment. Actin levels served as a loading control.
as §3

[8] = high fat diet mice, p<0.05, FIG. 1d/1e
[9] = FIG. 2d, primary hepatocytes treated for 24 hours
[10] = FIG. 2d, primary hepatocytes treated for 24 hours, p<0.05

`CC(=O)N[C@H]1[C@H](O[C@H]2[C@@H](O)[C@@H](CO)O[C@@H](O[C@H]3[C@H](O)[C@@H](O)C(O)O[C@@H]3CO)[C@@H]2O)O[C@H](CO)[C@@H](O[C@@H]2O[C@H](CO)[C@H](O)[C@H](O)[C@H]2O)[C@@H]1O` (mixture of isomers) [LNnT, lacto-N-neotetraose] was tested, and the “activity of the FXRα1/α2 promoter in a luciferase assay” value [1] was “significantly increased” and the “lipogenesis in cultured primary hepatocytes” value [2] was “blocked lipogenesis in cultured primary hepatocytes in a dose-dependent manner”.

In the case of lacto-N-fucopentaose III [LNFPIII], the “high fat diet-induced hepatic lipid accumulation (histology)” value ([3]; 25 μg i.p. twice a week, 6 weeks, FIG. 1a) is reported as “less high fat diet-induced hepatic lipid accumulation”, the “levels of triglycerides in livers” value ([3]; 25 μg twice a week, p<0.05, FIG. 1b) is reported as “significantly lower levels” and the “circulating levels of ALT” value [3, 8] is reported as “significantly reduced levels”. For the same molecule, the “circulating levels of AST” value [3, 8] was “significantly reduced levels”, the “ACC1/2 mRNA in livers” value (livers of mice) was “significantly reduced” and the “Arg1 (M2 marker) mRNA in liver tissue” value (livers of mice) was “significantly higher levels”. For the same molecule, the “F4/80 mRNA in liver tissue” value (livers of mice) was “significantly lower levels”, the “FAS mRNA in livers” value (livers of mice) was “significantly reduced” and the “IL-1β mRNA in liver tissue” value (livers of mice) was “unchanged”. The “IL-6 mRNA in liver tissue” value (livers of mice) was “significantly lower levels”, the “Mgl1 (M2 marker) mRNA in liver tissue” value (livers of mice) was “significantly higher levels” and the “SCD1 mRNA in livers” value (livers of mice) was “significantly reduced”. The “SREBP-1c mRNA in livers” value (livers of mice) was “significantly reduced”, the “β-oxidation gene expression in livers” value (livers of mice) was “did not affect” and the “reduction in serum ALT concentration, wild type vs FXR−/− mice” value (FXRα−/− mice; FIG. 2i, p<0.05) was “required FXRα expression”. For the same molecule, the “reduction in serum AST concentration, wild type vs FXR−/− mice” value (FXRα−/− mice; FIG. 2i, p<0.05) was “required FXRα expression”, the “reduction in hepatic triglyceride content, wild type vs FXR−/− mice” value (FXRα−/− mice; FIG. 2h, p<0.05) was “required FXRα expression” and the “Acc1 mRNA expression in FXRα−/− mice” value (FXRα−/− mice; livers, FIG. 2f) was “did not reduce”. The “Acc2 mRNA expression in FXRα−/− mice” value (FXRα−/− mice; livers, FIG. 2f) was “did not reduce”, the “Fas mRNA expression in FXRα−/− mice” value (FXRα−/− mice; livers, FIG. 2f) was “did not reduce” and the “Scd1 mRNA expression in FXRα−/− mice” value (FXRα−/− mice; livers, FIG. 2f) was “did not reduce”. The “Srebp mRNA expression in FXRα−/− mice” value (FXRα−/− mice; livers, FIG. 2f) was “did not reduce”, the “activation of FXRα promoter 2 reporter with mutated overlapping AP-1 sites (site 3)” value ([4]; HepG2, site-directed mutagenesis, FIG. 3d, 3e) was “two overlapping AP-1 sites were required for the activation” and the “Erk phosphorylation in liver” value (Erk [5]) was “increased”. The “ability of LNFPIII to suppress lipid synthesis in presence of PD98059” value [2] was “dependent on Erk activity and FXRα”, the “lipogenesis in primary hepatocytes” value ([2]; 20 μg/ml, 24 hours) was “significantly suppressed” and the “ability of LNFPIII to increase β-oxidation in presence of PD98059” value [6] was “dependent on Erk activity and FXRα”. For the same molecule, the “β-oxidation gene expression in primary hepatocytes” value (primary hepatocytes) was “did not affect”, the “FXRα1/α2 mRNA expression” value (primary hepatocytes; [9]) was “remained unchanged” and the “LXRα mRNA expression” value (primary hepatocytes; [9]) was “remained unchanged”. The BSEP transcripts (primary hepatocytes; [10]) was “significantly upregulated”, the OATP transcripts (primary hepatocytes; [10]) was “significantly upregulated” and the PLTP transcripts (primary hepatocytes; [10]) was “significantly upregulated”. The SHP transcripts (primary hepatocytes; [10]) was “significantly upregulated” and the FXRα3/α4 transcripts (primary hepatocytes; FIG. 2d, primary hepatocytes treated for 24 hours, vs vehicle, p<0.05) was “significantly upregulated”.

With `COc1cccc(-c2cc(=O)c3ccccc3o2)c1N` [PD98059, reference compound] the “responsiveness of the FXRα promoter 2 to LNFPIII in presence of PD98059” value [4] was “completely abolished”, the “activation of Erk in response to LNFPIII in presence of PD98059” value (Erk [7]) was “completely abolished” and the “ability of LNFPIII to suppress lipid synthesis in presence of PD98059” value [2] was “completely abolished”. The “ability of LNFPIII to increase β-oxidation in presence of PD98059” value [6] was “completely abolished”.

From patent US20140315781A1, “METHODS OF TREATING FATTY LIVER DISEASE WITH HELMINTH-DERIVED GLYCAN-CONTAINING COMPOUNDS” (priority 2011, published 2014)
